≈ marks a conversion by molar mass, not a printed value. Numbered stars: 1 amine (or outer) side, 2 acyl side, 3 side chain; on linkers, the order of the positions; unused ones are H or OH. Bridge positions count the residues as written; N and C are the ends. Square brackets hold non-standard residues; d marks the D form. Peptide text beside a SMILES is read from it. I, II: the chains in the order shown. X1 = C[C@@H](CNC(=O)[*:1])N[*:2]; Nle = CCCC[C@H](N)C(=O)O
Legend:
[1] = Solubility of glucagon analogs (UV absorbance); format: physicochemical; details: for solubility: 0.01M HCl solution adjusted to pH 7 with Na2HPO4, pH 7, pH adjusted to 7 with Na2HPO4, incubated overnight at 4° C.; for ratio (solubility relative to reference compound 16): relative to compound 16;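 on all read-outs here: peptide stock at 3 mg/ml in 0.01 M HCl, absorbance at 280 nm read before neutralization and again on the diluted supernatant after centrifugation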
Procedure: A solution of 3 mg/ml of glucagon (or analog) was prepared in a 0.01M HCl solution. Then 0.1 ml of the stock solution was diluted to 1 ml with HCl (0.01M) and the UV absorbance measured (to 280 nm) with nanodrop UV spectrometer. The pH of the remaining stock solution was adjusted to 7 using Na2HPO4, and the solution was incubated overnight at 4° C. The solution was then centrifuged three times (5 minutes, 4000 rotations per minute), 0.1 ml of the supernatant was removed and diluted to 1 ml with HCl solution (0.01M).
The final UV absorbance was measured.

human glucagon receptor = target: T1, human glucagon receptor (Homo sapiens, UniProt P47871); assay: Glucagon functional assay: agonist activity by cAMP production (HTRF) in transfected CHO cells; format: cell-based; details: for EC50: cAMP production, transfected CHO cells, 10 minutes at 37° C.
T1 construct: expressed in transfected cells; host or cells: CHO cells
Procedure: Functional Assay to Examine Bioactivity of Glucagon Receptor Agonists. Evaluation of the agonist activity of compounds at the human glucagon receptor expressed in transfected CHO cells was examined by measuring their effects on cAMP production using the HTRF detection method. […] For stimulated control measurement, separate assay wells contain 100 nM glucagon were utilized.
Following incubation, the cells were lysed and the fluorescence acceptor (D2-labeled cAMP) and fluorescence donor (anti-cAMP antibody labeled with europium cryptate) were added. […] The results are expressed as a percent of the control response to 100 nM glucagon. The standard reference agonist is glucagon, which was tested in each experiment at several concentrations to generate a concentration-response curve from which its EC50 value was calculated.
HTRF (Homogeneous Time-Resolved Fluorescence) principle. The HTRF technology is based on time resolved fluorescence energy transfer (TR-FRET), which occurs between long-lived fluorophore Europium or Terbium Cryptates, and EuK or Tb respectively, as a donor and the allophycocyanin XL665, d2 or Red as acceptor. Many compounds and proteins present in biological fluids or serum are naturally fluorescent, and the use of conventional, prompt fluorescence leads to serious limitations in assay sensitivity. The use of long-lived fluorophore combined with time-resolved detection (a delay between excitation and emission detection) minimizes prompt fluorescence interference.

T1 sequence (P47871 26-477): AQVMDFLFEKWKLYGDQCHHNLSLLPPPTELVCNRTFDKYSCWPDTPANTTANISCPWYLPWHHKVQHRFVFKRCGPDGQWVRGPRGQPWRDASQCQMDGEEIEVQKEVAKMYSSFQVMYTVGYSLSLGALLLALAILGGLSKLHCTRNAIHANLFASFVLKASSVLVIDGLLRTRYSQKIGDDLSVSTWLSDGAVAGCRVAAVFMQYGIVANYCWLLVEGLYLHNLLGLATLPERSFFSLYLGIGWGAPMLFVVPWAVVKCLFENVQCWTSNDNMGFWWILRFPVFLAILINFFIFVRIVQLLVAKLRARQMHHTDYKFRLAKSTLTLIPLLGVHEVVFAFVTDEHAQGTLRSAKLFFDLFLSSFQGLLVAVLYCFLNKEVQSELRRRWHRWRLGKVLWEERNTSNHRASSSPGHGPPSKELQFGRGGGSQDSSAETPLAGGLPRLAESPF

With CC(C)C[C@H](NC(=O)[C@H](Cc1ccc(O)cc1)NC(=O)[C@H](CCCCN)NC(=O)[C@H](CO)NC(=O)[C@H](Cc1ccc(O)cc1)NC(=O)[C@H](CC(=O)O)NC(=O)[C@H](CO)NC(=O)[C@@H](NC(=O)[C@H](Cc1ccccc1)NC(=O)[C@@H](NC(=O)CNC(=O)[C@H](CCC(N)=O)NC(=O)[C@H](CO)NC(=O)[C@@H](N)Cc1c[nH]cn1)[C@@H](C)O)[C@@H](C)O)C(=O)N[C@@H](CC(=O)O)C(=O)N[C@@H](CO)C(=O)N[C@@H](CCCNC(=N)N)C(=O)N[C@@H](CCCNC(=N)N)C(=O)N[C@@H](C)C(=O)N[C@@H](CCC(N)=O)C(=O)N[C@@H](CC(=O)O)C(=O)N[C@@H](Cc1ccccc1)C(=O)N[C@H](C(=O)N[C@@H](CCC(N)=O)C(=O)N[C@@H](Cc1c[nH]c2ccccc12)C(=O)N[C@@H](CC(C)C)C(=O)N[C@@H](C)CNC(=O)N[C@@H](CC(N)=O)C(=O)N[C@H](C(=O)O)[C@@H](C)O)C(C)C [Compound 34] the solubility [1] was 860 µg/mL (≈ 249 µM), the “ratio (solubility relative to reference compound 16)” value [1] was 3.4 and the EC50 (human glucagon receptor) was 2.5 nM.
With CCCC[C@H](NC(=O)[C@H](CC(C)C)NC(=O)[C@H](Cc1c[nH]c2ccccc12)NC(=O)[C@H](CCC(N)=O)NC(=O)[C@@H](NC(=O)[C@H](Cc1ccccc1)NC(=O)[C@H](CC(=O)O)NC(=O)[C@H](CCC(N)=O)NC(=O)[C@H](C)NC(=O)[C@H](CCCNC(=N)N)NC(=O)[C@H](CCCNC(=N)N)NC(=O)[C@H](CO)NC(=O)[C@H](CC(=O)O)NC(=O)[C@H](CC(C)C)NC(=O)[C@H](Cc1ccc(O)cc1)NC(=O)[C@H](CCCCN)NC(=O)[C@H](CO)NC(=O)[C@H](Cc1ccc(O)cc1)NC(=O)[C@H](CC(=O)O)NC(=O)[C@H](CO)NC(=O)[C@@H](NC(=O)[C@H](Cc1ccccc1)NC(=O)[C@@H](NC(=O)CNC(=O)[C@H](CCC(N)=O)NC(=O)[C@H](CO)NC(=O)[C@@H](N)Cc1c[nH]cn1)[C@@H](C)O)[C@@H](C)O)C(C)C)C(=O)N[C@@H](C)CNC(=O)N[C@H](C(=O)O)[C@@H](C)O [Compound 35] the EC50 (human glucagon receptor) was 0.44 nM.
For CCCC[C@H](NC(=O)[C@H](CC(C)C)NC(=O)[C@H](Cc1c[nH]c2ccccc12)NC(=O)[C@H](CCC(N)=O)NC(=O)[C@@H](NC(=O)[C@H](Cc1ccccc1)NC(=O)[C@H](CC(=O)O)NC(=O)[C@H](CCC(N)=O)NC(=O)[C@H](C)NC(=O)[C@H](CCCNC(=N)N)NC(=O)[C@H](CCCNC(=N)N)NC(=O)[C@H](CO)NC(=O)[C@H](CC(=O)O)NC(=O)[C@H](CC(C)C)NC(=O)[C@H](Cc1ccc(O)cc1)NC(=O)[C@H](CCCCN)NC(=O)[C@H](CO)NC(=O)[C@H](Cc1ccc(O)cc1)NC(=O)[C@H](CC(=O)O)NC(=O)[C@H](CO)NC(=O)[C@@H](NC(=O)[C@H](Cc1ccccc1)NC(=O)[C@@H](NC(=O)CNC(=O)[C@H](CCC(N)=O)NC(=O)[C@H](CO)NC(=O)[C@@H](N)Cc1c[nH]cn1)[C@@H](C)O)[C@@H](C)O)C(C)C)C(=O)N[C@@H](CC(N)=O)C(=O)N[C@@H](C)CNC(N)=O [Compound 36], the “% bioactivity of reference, GCG-R” value (human glucagon receptor; Reference Compound 16) was 246% and the EC50 (human glucagon receptor) was 0.026 nM.
With CCCC[C@H](NC(=O)[C@H](CC(C)C)NC(=O)[C@H](Cc1c[nH]c2ccccc12)NC(=O)[C@H](CCC(N)=O)NC(=O)[C@@H](NC(=O)[C@H](Cc1ccccc1)NC(=O)[C@H](CC(=O)O)NC(=O)[C@H](CCC(N)=O)NC(=O)[C@H](C)NC(=O)[C@H](CCCNC(=N)N)NC(=O)[C@H](CCCNC(=N)N)NC(=O)[C@H](CO)NC(=O)[C@H](CC(=O)O)NC(=O)NC[C@H](C)NC(=O)[C@H](Cc1ccc(O)cc1)NC(=O)[C@H](CCCCN)NC(=O)[C@H](CO)NC(=O)[C@H](Cc1ccc(O)cc1)NC(=O)[C@H](CC(=O)O)NC(=O)[C@H](CO)NC(=O)[C@@H](NC(=O)[C@H](Cc1ccccc1)NC(=O)[C@@H](NC(=O)CNC(=O)[C@H](CCC(N)=O)NC(=O)[C@H](CO)NC(=O)[C@@H](N)Cc1c[nH]cn1)[C@@H](C)O)[C@@H](C)O)C(C)C)C(=O)N[C@@H](CC(N)=O)C(=O)N[C@H](C(=O)O)[C@@H](C)O [Compound 51] (I: DSRRAQDFVQWL[Nle]NT-OH / II: H-HSQGTFTSDYSKY; linker I:N-II:C via X1; C-terminus assumed) the solubility [1] was 560 µg/mL (≈ 162 µM), the “ratio (solubility relative to reference compound 16)” value [1] was 2.2 and the EC50 (human glucagon receptor) was 68 nM.
With CCCC[C@H](NC(=O)[C@H](CC(C)C)NC(=O)[C@H](Cc1c[nH]c2ccccc12)NC(=O)[C@H](CCC(N)=O)NC(=O)[C@@H](NC(=O)[C@H](Cc1ccccc1)NC(=O)[C@H](CC(=O)O)NC(=O)[C@H](CCC(N)=O)NC(=O)[C@H](C)NC(=O)[C@H](CCCNC(=N)N)NC(=O)[C@H](CCCNC(=N)N)NC(=O)NC[C@H](C)NC(=O)[C@H](CC(=O)O)NC(=O)[C@H](CC(C)C)NC(=O)[C@H](Cc1ccc(O)cc1)NC(=O)[C@H](CCCCN)NC(=O)[C@H](CO)NC(=O)[C@H](Cc1ccc(O)cc1)NC(=O)[C@H](CC(=O)O)NC(=O)[C@H](CO)NC(=O)[C@@H](NC(=O)[C@H](Cc1ccccc1)NC(=O)[C@@H](NC(=O)CNC(=O)[C@H](CCC(N)=O)NC(=O)[C@H](CO)NC(=O)[C@@H](N)Cc1c[nH]cn1)[C@@H](C)O)[C@@H](C)O)C(C)C)C(=O)N[C@@H](CC(N)=O)C(=O)N[C@H](C(=O)O)[C@@H](C)O [Compound 52] the solubility [1] was 490 µg/mL (≈ 141 µM), the “ratio (solubility relative to reference compound 16)” value [1] was 1.9 and the EC50 (human glucagon receptor) was 34 nM.
For CCCC[C@H](NC(=O)[C@H](CC(C)C)NC(=O)[C@H](Cc1c[nH]c2ccccc12)NC(=O)[C@H](CCC(N)=O)NC(=O)[C@@H](NC(=O)[C@H](Cc1ccccc1)NC(=O)[C@H](CC(=O)O)NC(=O)[C@H](CCC(N)=O)NC(=O)[C@H](C)NC(=O)[C@H](CCCNC(=N)N)NC(=O)NC[C@H](C)NC(=O)[C@H](CO)NC(=O)[C@H](CC(=O)O)NC(=O)[C@H](CC(C)C)NC(=O)[C@H](Cc1ccc(O)cc1)NC(=O)[C@H](CCCCN)NC(=O)[C@H](CO)NC(=O)[C@H](Cc1ccc(O)cc1)NC(=O)[C@H](CC(=O)O)NC(=O)[C@H](CO)NC(=O)[C@@H](NC(=O)[C@H](Cc1ccccc1)NC(=O)[C@@H](NC(=O)CNC(=O)[C@H](CCC(N)=O)NC(=O)[C@H](CO)NC(=O)[C@@H](N)Cc1c[nH]cn1)[C@@H](C)O)[C@@H](C)O)C(C)C)C(=O)N[C@@H](CC(N)=O)C(=O)N[C@H](C(=O)O)[C@@H](C)O [Compound 53], the solubility [1] was 580 µg/mL (≈ 170 µM), the “ratio (solubility relative to reference compound 16)” value [1] was 2.3 and the EC50 (human glucagon receptor) was 0.67 nM.
For CCCC[C@H](NC(=O)[C@H](CC(C)C)NC(=O)[C@H](Cc1c[nH]c2ccccc12)NC(=O)[C@H](CCC(N)=O)NC(=O)[C@@H](NC(=O)[C@H](Cc1ccccc1)NC(=O)[C@H](CC(=O)O)NC(=O)[C@H](CCC(N)=O)NC(=O)NC[C@H](C)NC(=O)[C@H](CCCNC(=N)N)NC(=O)[C@H](CCCNC(=N)N)NC(=O)[C@H](CO)NC(=O)[C@H](CC(=O)O)NC(=O)[C@H](CC(C)C)NC(=O)[C@H](Cc1ccc(O)cc1)NC(=O)[C@H](CCCCN)NC(=O)[C@H](CO)NC(=O)[C@H](Cc1ccc(O)cc1)NC(=O)[C@H](CC(=O)O)NC(=O)[C@H](CO)NC(=O)[C@@H](NC(=O)[C@H](Cc1ccccc1)NC(=O)[C@@H](NC(=O)CNC(=O)[C@H](CCC(N)=O)NC(=O)[C@H](CO)NC(=O)[C@@H](N)Cc1c[nH]cn1)[C@@H](C)O)[C@@H](C)O)C(C)C)C(=O)N[C@@H](CC(N)=O)C(=O)N[C@H](C(=O)O)[C@@H](C)O [Compound 54], the solubility [1] was 630 µg/mL (≈ 180 µM), the “ratio (solubility relative to reference compound 16)” value [1] was 2.5 and the EC50 (human glucagon receptor) was 32 nM.
In the case of CCCC[C@H](NC(=O)[C@H](CC(C)C)NC(=O)[C@H](Cc1c[nH]c2ccccc12)NC(=O)[C@H](CCC(N)=O)NC(=O)NC[C@H](C)NC(=O)[C@H](Cc1ccccc1)NC(=O)[C@H](CC(=O)O)NC(=O)[C@H](CCC(N)=O)NC(=O)[C@H](C)NC(=O)[C@H](CCCNC(=N)N)NC(=O)[C@H](CCCNC(=N)N)NC(=O)[C@H](CO)NC(=O)[C@H](CC(=O)O)NC(=O)[C@H](CC(C)C)NC(=O)[C@H](Cc1ccc(O)cc1)NC(=O)[C@H](CCCCN)NC(=O)[C@H](CO)NC(=O)[C@H](Cc1ccc(O)cc1)NC(=O)[C@H](CC(=O)O)NC(=O)[C@H](CO)NC(=O)[C@@H](NC(=O)[C@H](Cc1ccccc1)NC(=O)[C@@H](NC(=O)CNC(=O)[C@H](CCC(N)=O)NC(=O)[C@H](CO)NC(=O)[C@@H](N)Cc1c[nH]cn1)[C@@H](C)O)[C@@H](C)O)C(=O)N[C@@H](CC(N)=O)C(=O)N[C@H](C(=O)O)[C@@H](C)O [Compound 55], the solubility [1] is reported as 1390 µg/mL (≈ 401 µM), the “ratio (solubility relative to reference compound 16)” value [1] is reported as 5.5 and the EC50 (human glucagon receptor) is reported as 34 nM.
For CCCC[C@H](NC(=O)[C@H](CC(C)C)NC(=O)[C@H](Cc1c[nH]c2ccccc12)NC(=O)NC[C@H](C)NC(=O)[C@@H](NC(=O)[C@H](Cc1ccccc1)NC(=O)[C@H](CC(=O)O)NC(=O)[C@H](CCC(N)=O)NC(=O)[C@H](C)NC(=O)[C@H](CCCNC(=N)N)NC(=O)[C@H](CCCNC(=N)N)NC(=O)[C@H](CO)NC(=O)[C@H](CC(=O)O)NC(=O)[C@H](CC(C)C)NC(=O)[C@H](Cc1ccc(O)cc1)NC(=O)[C@H](CCCCN)NC(=O)[C@H](CO)NC(=O)[C@H](Cc1ccc(O)cc1)NC(=O)[C@H](CC(=O)O)NC(=O)[C@H](CO)NC(=O)[C@@H](NC(=O)[C@H](Cc1ccccc1)NC(=O)[C@@H](NC(=O)CNC(=O)[C@H](CCC(N)=O)NC(=O)[C@H](CO)NC(=O)[C@@H](N)Cc1c[nH]cn1)[C@@H](C)O)[C@@H](C)O)C(C)C)C(=O)N[C@@H](CC(N)=O)C(=O)N[C@H](C(=O)O)[C@@H](C)O [Compound 56], the solubility [1] was 700 µg/mL (≈ 204 µM), the “ratio (solubility relative to reference compound 16)” value [1] was 2.8 and the EC50 (human glucagon receptor) was 0.072 nM.
